Assay [1] relates to Mycobacterium tuberculosis H37Rv. Kind of assay: Antituberculosis primary in vitro screen, BACTEC 460. In kind it is cell-based, Mycobacterium tuberculosis H37Rv ATCC 27294. As to conditions: 12.5 μg/mL, 37° C; for inhibition at 12.5 µg/mL: Mycobacterium tuberculosis, H37RV, read-out: Anti-tubercular Activity (% inhibition).
A further assay has as its system Aspergillus niger. As to the kind of experiment: Fungicidal assay, MIC against Aspergillus niger in MSY broth. In kind it is cell-based. As to conditions: Table II, four days at 28° C, in the dark, no unit in table (ppm levels). As for the experimental part:
The antifungal activities of compounds synthesized were measured by determining the inhibition of growth of Aspergillus niger in a standard liquid medium. The liquid growth medium is described as a solution of mineral salts and yeast extract (MSY). The MSY broth was prepared as described in ASTM G21-70, and amended with glucose (10 g/l) and yeast extract (1 g/l). An aliquot ([…]) of sterile medium was dispensed into each test well of a standard 96 well microplate (Corning No. 430247). Stock solutions of test compounds were prepared by dissolving the materials in 9:1 (v/v) solutions of acetone:methanol. Appropriate volumes of stock solutions were added to the test wells in order to achieve the desired ppm levels. Each test well (plus controls) was then inoculated with […] of a standardized suspension of Aspergillus niger. The cell suspension was prepared by suspending viable cells from a slant of potato dextrose agar into sterile, deionized water. The suspension was then adjusted to provide OD686 =0.28. This density contains approximately 2.5×10^7 CFU (colony forming units)/ml. The microplates were incubated in the dark for four days at 28° C. The optical density for each well at 686 nm was then recorded automatically using a SpectraMax 340 microplate reader (Molecular Devices Corp., Sunnyvale, Calif.). All wells were visually inspected in order to corroborate data from the instrument.
The antifungal activity was measured as minimum inhibitory concentrations or MIC of the 5'-substituted-4',5'-dihydropsoralens.

For assay [2], the system named is PAM 212 keratinocytes. As to the kind of experiment: PAM 212 keratinocyte growth inhibition (photo-toxicity with UVA / dark-toxicity without light). In kind it is cell-based. As to conditions: UVA 320-400 nm, 1.28 J/cm2, growth 4-5 days. As for the experimental part: Representative examples of the compounds described and claimed herein were tested in this assay for biological activity and found to be potent inhibitors of cell growth. Inhibition of cell growth was rapid, dependent on concentration, and required light activation. […] A description of this assay follows.
The photobiological activity was assayed using a keratinocyte cell line grown in a monolayer culture. In this assay, PAM 212 keratinocytes were grown in Dulbecco's Modified Eagle's medium supplemented with 10% newborn calf serum in a 5% carbon dioxide incubator. Cells were inoculated into 6-well Falcon plastic culture dishes at 25,000 cells per well. After 24 hours, the medium was charged to fresh growth medium supplemented with increasing concentrations of the test compounds or the control medium. Controls and test concentrations were analyzed in triplicate.
These plates were then incubated in a 37 degree C. carbon dioxide incubator. After 30 minutes culture plates were exposed to UVA light (UVA, 320-400 nm) emitted from a bank of four BLB fluorescent light tubes (F40 BL, Sylvania) placed approximately 10 cm above the cell culture plates. The incident light on the culture plates was 2.4 mW/cm^2 as measured with an International Light UV radiometer, Model IL 442A. The cells were exposed to 1.28 J/square centimeter of UVA.
After completion of the irradiation phase, the cell culture medium was drained, the cells refed with fresh growth medium and then re-incubated in the carbon dioxide incubator to allow for cell growth. After 4-5 days of growth the culture plates were removed from the incubator and the cell culture medium was drained. The cells were detached from the plates with trypsin and counted in a Coulter Counter. For control cells or for cells treated with test compounds, cell growth was determined as a percentage of control. […] This value is shown in Table I for a variety of phototherapeutics.

The test system of assay [3] is PAM 212 keratinocytes. The description is as above. In kind it is cell-based.
The test system of a further assay is Chlorella vulgaris. As to the kind of experiment: Algicidal assay, MIC against Chlorella in modified Allen's medium. In kind it is cell-based. As to conditions: Table III, 14 days, 26 to 28° C, no unit in table (ppm). The protocol: To assay the activity of the 5'-substituted-4',5'-dihydropsoralens of the invention against Chlorella, the Allen method (A. A. Allen, […], Journal of Phycology, 4, 1-4) was employed. […] The minimum inhibitory concentration (MIC) of the compounds tested against the fungus Aspergillus niger using an MSY broth is shown in Table II.
Test tubes containing modified Allen's medium were treated with increasing dosages of the compound to be tested and inoculated with a suspension of algal cells. After fourteen days of incubation, algal growth was rated as positive or negative. The minimum inhibitory concentration (MIC) of the compound is the smallest dosage showing negative algal growth.
The apparatus required consisted of sterilized test tubes, 18-150 mm and an incubator, capable of a constant (±2° C.) temperature within 26 to 28° C. The following procedure was used:
(1) Stock solutions (g/200 g deionized water each) were generated with: K2 HPO4, 1.50 g; MgSO4, 7H2 O, 1.50 g; Na2 CO3, 0.80 g; CaCl2 2H2 O, 0.50 g; Na2 SiO3 9H2 O, 1.16 g, and Citric acid, 1.20 g.
(3) The modified Allen's medium was prepared in a volumetric flask by the addition of 1.5 g NaNO3, 5.0 mL stock solution K2 HPO4, 5.0 mL stock solution MgSO4 -- 7H2 O, 5.0 mL Stock solution Na2 CO3, 10.0 mL stock solution CaCl2 2H2 O, 10.0 mL stock solution Na2 SiO3 9H2 O, 1.0 mL stock solution Citric acid and 1.0 mL stock solution PIV metal with enough deionized water to make 1000 mL of medium (Allen, 1968). The pH was adjusted to 7.8 and 5 mL of medium is added to each test tube. The tubes were sterilized in the autoclave for 20 minutes at 15 psi at 121° C. The test tubes were allowed to cool to 45-50° C. before adding the test compound and the inoculurn to the medium.
(4) The inoculum was a cell suspension from a 14-day-old culture of Chlorella vulgaris (UTEX 26, University of Texas) that was grown in modified Allen's medium.
The concentration of the stock solution in water or acetone of the compound to be tested is dependent on the largest dose required to be tested. Dilutions of the stock solution were made so that 100 μL of the stock solution of the corresponiding dilution was added per test tube. 100 μL of the solvent was added to the control to prepare the stock solution.
The inoculation consists of the addition of 100 μL of inoculurn per test tube.
The incubation of the control test tube and the test tubes containing compound and inoculum occurred in an incubator set between 26 to 28° C., with the temperature not varying more than ±2° C. Light was provided by plant growth fluorescent tubes and the test tubes were allowed to stand in the incubator for 14 days.
Rating of the test tubes containing different dosages of the compound will be positive or negative. […] If the medium in the rubes remains colorless, a negative (not contaminated) rating is given. The control is always positive. The minimum inhibitory concentration (MIC) of the compound is determined to be the smallest dosage showing negative algal growth.

The mark [4] stands for this setting: Mus musculus, PAM212, light or radiation study.

Results on four molecules are retold here after patent US6255324A, “Amino-and mercurio-substituted 4',5'-dihydropsoralens and therapeutical uses thereof” (priority 1998, dated 2001).

Where two headings read alike, the source gives them in different places. Where only a bound is given, the exact number is not on record here.

Broadly, the IC50 is the concentration at which inhibition is half-maximal. Low values mean greater potency in that assay, high ones weaker potency in that assay. On to `[I][Hg][CH2]C1Cc2ccccc2O1` (centres unmarked) [T = HgI, 2-Iodomercurimethyl-2,3-dihydrobenzofuran], for which the “Anti-tubercular Activity (% inhibition)” value in assay [1] was found to be 99%. The MIC in the assay with Aspergillus niger is given as < 8; in the assay with Chlorella vulgaris it was 10. Further, the IC50 is 5.7 µM with PAM 212 keratinocytes [2] and 12 µM in the assay with PAM 212 keratinocytes [3].
Broadly, the inhibition is the drop in the measured response relative to a control, in per cent. As for `Cc1c(I)c(=O)oc2c(C)c3c(cc12)CC(CI)O3` (centres unmarked) [R = I, T = I, 3-Iodo-4,8-dimethyl-5'-iodomethyl-4',5'-dihydropsoralen], the inhibition at 12.5 µg/mL in assay [1] worked out at 17%. Also, half-maximal inhibition in the assay with PAM 212 keratinocytes [2] (setting [4]) (IC50) was put at 4.2 µM.
For `Cc1c(Br)c(=O)oc2c(C)c3c(cc12)CC(CI)O3` (centres unmarked) [R = Br, T = I, 3-Bromo-4,8-dimethyl-5'-iodomethyl-4',5'-dihydropsoralen] the same measures were 25% and 0.48 µM.
In the same order, the values of `Cc1cc(=O)oc2c(C)c3c(cc12)CC(CI)O3` (centres unmarked) [R = H, T = I, 4,8-Dimethyl-5'-iodomethyl-4',5'-dihydropsoralen] are 24% and 1.1 µM.
